Results taken from PubChem BioAssay (NCI).
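Growth conditions: 96-well plates. Treatment: test compound, 48 hours, 5 concentrations. Analysis: linear interpolation between bracketing concentrations; unreached endpoints set to highest concentration. GI50 = concentration required for 50% inhibition of growth. TGI marks complete inhibition of growth.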

Columns and labels:
Test in all cases: DTP human tumour cell line panel, 48 h
786-0 renal = test system: 786-0 renal
A498 renal = test system: A498 renal
A549 NSCLC = test system: A549 NSCLC
ACHN renal = test system: ACHN renal
BT-549 breast = test system: BT-549 breast
CAKI-1 renal = test system: CAKI-1 renal
CCRF-CEM leukemia = test system: CCRF-CEM leukemia
COLO 205 colon = test system: COLO 205 colon
DU-145 prostate = test system: DU-145 prostate
EKVX NSCLC = test system: EKVX NSCLC
HCC-2998 colon = test system: HCC-2998 colon
HCT-116 colon = test system: HCT-116 colon
HCT-15 colon = test system: HCT-15 colon
HL-60(TB) leukemia = test system: HL-60(TB) leukemia
HOP-62 NSCLC = test system: HOP-62 NSCLC
HOP-92 NSCLC = test system: HOP-92 NSCLC
HS 578T breast = test system: HS 578T breast
HT29 colon = test system: HT29 colon
IGROV1 ovarian = test system: IGROV1 ovarian
KM12 colon = test system: KM12 colon
LOX IMVI melanoma = test system: LOX IMVI melanoma
M14 melanoma = test system: M14 melanoma
MALME-3M melanoma = test system: MALME-3M melanoma
MCF7 breast = test system: MCF7 breast
MDA-MB-231 breast = test system: MDA-MB-231 breast
MDA-MB-435 = test system: MDA-MB-435
MOLT-4 leukemia = test system: MOLT-4 leukemia
NCI-H226 lung = test system: NCI-H226 lung
NCI-H23 lung = test system: NCI-H23 lung
NCI-H460 lung = test system: NCI-H460 lung
NCI-H522 lung = test system: NCI-H522 lung
NCI/ADR-RES ovarian = test system: NCI/ADR-RES ovarian
OVCAR-3 ovarian = test system: OVCAR-3 ovarian
OVCAR-4 ovarian = test system: OVCAR-4 ovarian
OVCAR-5 ovarian = test system: OVCAR-5 ovarian
OVCAR-8 ovarian = test system: OVCAR-8 ovarian
PC-3 prostate = test system: PC-3 prostate
RPMI-8226 leukemia = test system: RPMI-8226 leukemia
RXF 393 renal = test system: RXF 393 renal
SF-268 CNS = test system: SF-268 CNS
SF-295 CNS = test system: SF-295 CNS
SF-539 CNS = test system: SF-539 CNS
SK-MEL-2 melanoma = test system: SK-MEL-2 melanoma
SK-MEL-28 melanoma = test system: SK-MEL-28 melanoma
SK-MEL-5 melanoma = test system: SK-MEL-5 melanoma
SK-OV-3 ovarian = test system: SK-OV-3 ovarian
SNB-19 CNS = test system: SNB-19 CNS
SNB-75 CNS = test system: SNB-75 CNS
SR leukemia = test system: SR leukemia
SW-620 colon = test system: SW-620 colon
T-47D breast = test system: T-47D breast
TK-10 renal = test system: TK-10 renal
U251 CNS = test system: U251 CNS
UACC-257 melanoma = test system: UACC-257 melanoma
UACC-62 melanoma = test system: UACC-62 melanoma
UO-31 renal = test system: UO-31 renal
K-562 leukemia = test system: K-562 leukemia
SN12C renal = test system: SN12C renal

## Cc1nc2cc(-n3c(-c4ccc(F)cc4)nc4ccccc4c3=O)ccc2n1Cc1ccccc1
786-0 renal
  GI50: 1.86 µM
  TGI: 3.62 µM
A498 renal
  GI50: 2.23 µM
  TGI: 11.6 µM
A549 NSCLC
  GI50: 2.02 µM
  TGI: 4.66 µM
ACHN renal
  GI50: 2.05 µM
  TGI: 4.63 µM
BT-549 breast
  GI50: 1.71 µM
  TGI: 3.48 µM
CAKI-1 renal
  GI50: 1.89 µM
  TGI: 4.51 µM
CCRF-CEM leukemia
  GI50: 8.34 µM
  TGI: > 100 µM
COLO 205 colon
  GI50: 2.11 µM
  TGI: 5.1 µM
DU-145 prostate
  GI50: 2.6 µM
  TGI: 6.95 µM
EKVX NSCLC
  GI50: 6.28 µM
  TGI: 49.9 µM
HCC-2998 colon
  GI50: > 100 µM
  TGI: > 100 µM
HCT-116 colon
  GI50: 1.57 µM
  TGI: 3.39 µM
HCT-15 colon
  GI50: 2.94 µM
  TGI: 11.6 µM
HL-60(TB) leukemia
  GI50: 13 µM
  TGI: > 100 µM
HOP-62 NSCLC
  GI50: 2.44 µM
  TGI: 6.98 µM
HOP-92 NSCLC
  GI50: 2.47 µM
  TGI: 8.25 µM
HS 578T breast
  GI50: 2.68 µM
  TGI: 8.6 µM
HT29 colon
  GI50: 2.23 µM
  TGI: 4.71 µM
IGROV1 ovarian
  GI50: 5.9 µM
  TGI: 31.2 µM
KM12 colon
  GI50: 3.12 µM
  TGI: 15.7 µM
LOX IMVI melanoma
  GI50: 1.97 µM
  TGI: 4.59 µM
M14 melanoma
  GI50: 2.13 µM
  TGI: 4.62 µM
MALME-3M melanoma
  GI50: 2.36 µM
  TGI: 5.36 µM
MCF7 breast
  GI50: 2.24 µM
  TGI: 5.56 µM
MDA-MB-231 breast
  GI50: 1.91 µM
  TGI: 5.09 µM
MDA-MB-435
  GI50: 1.98 µM
  TGI: 4.21 µM
MOLT-4 leukemia
  GI50: 3.52 µM
  TGI: > 100 µM
NCI-H226 lung
  GI50: 2.02 µM
  TGI: 6.51 µM
NCI-H23 lung
  GI50: 4.23 µM
  TGI: 37.6 µM
NCI-H460 lung
  GI50: 2.01 µM
  TGI: 4.09 µM
NCI-H522 lung
  GI50: 1.94 µM
  TGI: 6.49 µM
NCI/ADR-RES ovarian
  GI50: 1.85 µM
  TGI: 4.56 µM
OVCAR-3 ovarian
  GI50: 2.35 µM
  TGI: 5.2 µM
OVCAR-4 ovarian
  GI50: 2.24 µM
  TGI: 5.26 µM
OVCAR-5 ovarian
  GI50: 5.48 µM
  TGI: 24.1 µM
OVCAR-8 ovarian
  GI50: 2.31 µM
  TGI: 6.06 µM
PC-3 prostate
  GI50: 1.96 µM
  TGI: 5.3 µM
RPMI-8226 leukemia
  GI50: 5.58 µM
  TGI: 39.7 µM
RXF 393 renal
  GI50: 1.89 µM
  TGI: 4.26 µM
SF-268 CNS
  GI50: 2.83 µM
  TGI: 10.1 µM
SF-295 CNS
  GI50: 2.32 µM
  TGI: 5.73 µM
SF-539 CNS
  GI50: 1.91 µM
  TGI: 3.79 µM
SK-MEL-2 melanoma
  GI50: 2.32 µM
  TGI: 8.6 µM
SK-MEL-28 melanoma
  GI50: 2 µM
  TGI: 3.94 µM
SK-MEL-5 melanoma
  GI50: 2.67 µM
  TGI: 9.07 µM
SK-OV-3 ovarian
  GI50: 3.55 µM
  TGI: 13.8 µM
SNB-19 CNS
  GI50: 4.57 µM
  TGI: 26.8 µM
SNB-75 CNS
  GI50: 1.49 µM
  TGI: 3.6 µM
SR leukemia
  GI50: 2.7 µM
  TGI: > 100 µM
SW-620 colon
  GI50: 3.16 µM
  TGI: 19.2 µM
T-47D breast
  GI50: 1.7 µM
  TGI: 4.22 µM
TK-10 renal
  GI50: 2.73 µM
  TGI: 7.17 µM
U251 CNS
  GI50: 2.19 µM
  TGI: 5.18 µM
UACC-257 melanoma
  GI50: 2.64 µM
  TGI: 6.68 µM
UACC-62 melanoma
  GI50: 2.8 µM
  TGI: 9.79 µM
UO-31 renal
  GI50: 2.15 µM
  TGI: 8.42 µM

## O=C(N/N=C\c1c(O)ccc2ccccc12)C1CC1
786-0 renal
  GI50: 5.16 µM
  TGI: > 100 µM
A498 renal
  GI50: 16.8 µM
  TGI: 52 µM
A549 NSCLC
  GI50: 7.13 µM
  TGI: > 100 µM
ACHN renal
  GI50: 2.82 µM
  TGI: > 100 µM
BT-549 breast
  GI50: 5.78 µM
  TGI: 88.7 µM
CAKI-1 renal
  GI50: 1.6 µM
  TGI: 8.22 µM
CCRF-CEM leukemia
  GI50: 0.889 µM
  TGI: > 100 µM
COLO 205 colon
  GI50: 11.2 µM
  TGI: 93.8 µM
DU-145 prostate
  GI50: 13.4 µM
  TGI: > 100 µM
EKVX NSCLC
  GI50: 2.91 µM
  TGI: > 100 µM
HCC-2998 colon
  GI50: 9.8 µM
  TGI: > 100 µM
HCT-116 colon
  GI50: 3.04 µM
  TGI: > 100 µM
HCT-15 colon
  GI50: 1.22 µM
  TGI: > 100 µM
HL-60(TB) leukemia
  GI50: 1.53 µM
  TGI: > 100 µM
HOP-62 NSCLC
  GI50: 4.34 µM
  TGI: 91.4 µM
HOP-92 NSCLC
  GI50: 16.7 µM
  TGI: > 100 µM
HS 578T breast
  GI50: 17.2 µM
  TGI: > 100 µM
HT29 colon
  GI50: 13 µM
  TGI: > 100 µM
K-562 leukemia
  GI50: 3.64 µM
  TGI: > 100 µM
KM12 colon
  GI50: 6.12 µM
  TGI: > 100 µM
LOX IMVI melanoma
  GI50: 1.79 µM
  TGI: > 100 µM
M14 melanoma
  GI50: 3.76 µM
  TGI: 56 µM
MALME-3M melanoma
  GI50: 7.76 µM
  TGI: 54 µM
MCF7 breast
  GI50: 3.41 µM
  TGI: > 100 µM
MDA-MB-231 breast
  GI50: 7.5 µM
  TGI: > 100 µM
MDA-MB-435
  GI50: 11.6 µM
  TGI: > 100 µM
MOLT-4 leukemia
  GI50: 3.17 µM
  TGI: > 100 µM
NCI-H226 lung
  GI50: 13.1 µM
  TGI: 84.2 µM
NCI-H23 lung
  GI50: 5.94 µM
  TGI: > 100 µM
NCI-H460 lung
  GI50: 3 µM
  TGI: > 100 µM
NCI-H522 lung
  GI50: 5.75 µM
  TGI: > 100 µM
NCI/ADR-RES ovarian
  GI50: 2.76 µM
  TGI: > 100 µM
OVCAR-3 ovarian
  GI50: 2.2 µM
  TGI: 46 µM
OVCAR-4 ovarian
  GI50: 2.6 µM
  TGI: > 100 µM
OVCAR-5 ovarian
  GI50: 19.6 µM
  TGI: > 100 µM
OVCAR-8 ovarian
  GI50: 3.12 µM
  TGI: > 100 µM
PC-3 prostate
  GI50: 11.7 µM
  TGI: > 100 µM
RPMI-8226 leukemia
  GI50: 7.91 µM
  TGI: > 100 µM
RXF 393 renal
  GI50: 8.91 µM
  TGI: > 100 µM
SF-268 CNS
  GI50: 4.1 µM
  TGI: > 100 µM
SF-295 CNS
  GI50: 2.26 µM
  TGI: 8.23 µM
SF-539 CNS
  GI50: 4.48 µM
  TGI: > 100 µM
SK-MEL-2 melanoma
  GI50: 18.9 µM
  TGI: > 100 µM
SK-MEL-28 melanoma
  GI50: 17.8 µM
  TGI: > 100 µM
SK-MEL-5 melanoma
  GI50: 3.81 µM
  TGI: > 100 µM
SK-OV-3 ovarian
  GI50: 3.36 µM
  TGI: 67.2 µM
SN12C renal
  GI50: 11.7 µM
  TGI: > 100 µM
SNB-19 CNS
  GI50: 12.9 µM
  TGI: > 100 µM
SNB-75 CNS
  GI50: 6.68 µM
  TGI: 91.1 µM
SR leukemia
  GI50: 2.55 µM
  TGI: > 100 µM
SW-620 colon
  GI50: 6.55 µM
  TGI: > 100 µM
T-47D breast
  GI50: 4.9 µM
  TGI: > 100 µM
TK-10 renal
  GI50: 30.4 µM
  TGI: > 100 µM
U251 CNS
  GI50: 2.05 µM
  TGI: > 100 µM
UACC-257 melanoma
  GI50: 3.74 µM
  TGI: 97.1 µM
UACC-62 melanoma
  GI50: 3.25 µM
  TGI: 22.8 µM
UO-31 renal
  GI50: 0.863 µM
  TGI: 14.9 µM
